Assay: Pharmacokinetics after oral administration of the monophosphate prodrug to rats (blood and plasma)
Format: in vivo
Procedure: A sodium salt of the monophosphate prodrug compound (Formula (V-B)) was administered orally to rats in a dose of 10 mg/kg (5 mL/kg). The vehicle administered was dimethylacetamide:PEG400:30% HβCD (5:25:70). The pharmacokinetic results are tabulated below and graphically illustrated in FIG. 1.

| whole blood Cmax following administration of the compound of formula (III), compared with Cmax after the monophosphate prodrug (compound of formula (III) administered at the same dose) | Compound | conversion of the prodrug to compound of formula (III) (oral, 10 mg/kg, rats) |
| --- | --- | --- |
| equivalent | CC(C)n1nccc1-c1ncccc1COc1cccc(O)c1C=O [Formula (III), 2-hydroxy-6-([2-[1-(propan-2-yl)-1H-pyrazol-5-yl]pyridin-3-yl]methoxy)benzaldehyde] |  |
|  | CC(C)n1nccc1-c1ncccc1COc1cccc(OP(=O)(O)O)c1C=O [Formula (V-B), 2-formyl-3-((2-(1-isopropyl-1H-pyraol-5-yl)pyridin-3-yl)methoxy)phenyl dihydrogen phosphate] | efficiently con veiled to compound of formula (III) |

Reference: patent US20160024127A1, “COMPOUNDS AND USES THEREOF FOR THE MODULATION OF HEMOGLOBIN” (GLOBAL BLOOD THERAPEUTICS, INC., priority 2013, published 2016)
